Experimental data published in patent US20210369652A1, “Nonhormonal Unisex Contraceptives” (The Regents of the University of California, priority 2019, published 2021).
“Also recorded” adds a separate entry of the source.

Key:
human sperm mitochondria = test: Human sperm mitochondrial membrane potential (MMP) assessment with MitoRed; format: cell-based; settings: 15 minutes incubation, 1 μM NEN or 0.75 μM BAM15, 45 nM MitoRed fluorescence
Description: (§1) Samples from each condition (at least 100 of sperm midpieces per condition) were then assessed for fluorescence intensity measured with 45 nM MitoRed, which is a cell membrane permeable rhodamine-based dye. MitoRed localizes to mitochondria, and emits red fluorescence. The interaction of Mito Red with mitochondria depends on the membrane potential of the mitochondria. Uncoupled mitochondria emit less fluorescence. Data are standard boxplots, as in (A). C) Effect of sMU on human capacitated sperm hyperactivated motility. Cells were capacitated as described (11) for 4 hours. 4 μM Progesterone was added 2 minutes before imaging to trigger hyperactivation (HA). Cells were assessed as either Hyperactivated or Not Hyperactivated. N>45 cells. Error bars represent 95% CI calculated through the Wilson/Brown method.

ANT = molecular target: T1, ANT (Mus musculus, UniProt P48962); test: Whole-IMM patch-clamp recording of H+ current (IH) in mitoplasts; format: biochemical, mice; settings: for ANT-mediated H+ current (IH), regulators: skeletal muscle mitoplast, 2 μM AA, then 1 mM bath ADP, step from 0 to -160 mV
T1 construct: functional analysis of mitochondrial ion channels and transporters in their native membrane environment; from tissue; host or cells: heart mitoplasts (WT and ANT1-/- mice); skeletal muscle mitoplasts
T1 sequence (P48962 2-298): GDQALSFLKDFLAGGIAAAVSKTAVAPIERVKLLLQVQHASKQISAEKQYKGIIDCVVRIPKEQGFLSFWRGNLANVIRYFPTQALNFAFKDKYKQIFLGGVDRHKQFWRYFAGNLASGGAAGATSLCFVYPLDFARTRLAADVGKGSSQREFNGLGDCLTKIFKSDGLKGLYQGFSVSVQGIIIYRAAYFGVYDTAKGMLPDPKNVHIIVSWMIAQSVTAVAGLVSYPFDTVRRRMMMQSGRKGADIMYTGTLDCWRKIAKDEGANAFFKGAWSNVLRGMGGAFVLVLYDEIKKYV
From the text: FIG. 3A-B is a pair of schematic diagrams depicting a mitochondrial patch-clamp. (A) Preparation of mitoplasts (vesicles of the whole IMM): (1) Isolation of mitochondria from cell lysate by centrifugation; (2) OMM removal using a low-pressure French press; (3) isolated mitoplasts in a KCl solution. Remnants of the OMM (arrow) are attached to the IMM. (B) Patch-clamp recording from mitoplasts. After formation of the gigaohm seal (mitoplast-attached configuration), the membrane patch under the pipette can be destroyed by high-amplitude voltage pulses to form a whole-mitoplast configuration for recording currents (I) across the whole IMM. Alternatively, the patch pipette can be withdrawn from the mitoplast to form an inside-out mode for recording single-channel activity.
FIG. 4 is a series of graphs (upper panels) and a schematic diagram (lower panel) showing regulators of ANT-mediated H^+ current (IH). […] Control current is shown in black. Middle panel: IH time course of the left panel. Skeletal muscle mitoplast. IH amplitudes were measured upon stepping from 0 to −160 mV. Right panel: ADP inhibition of IH in points 2 and 3. Remaining IH measured at −160 mV is shown as a percentage of control, n=8. Explanation of transient IH inhibition by cytosolic adenine nucleotides. ANT in c-state, with fatty acid (FA) anion in the translocation pathway, mediates IH (I). Cytosolic ADP^3− binds in c-state and expels FA anion/blocks translocation pathway, leading to IH inhibition (2). Upon ANT conformation change, ADP dissociates into matrix (pipette) solution (2 and 3). FA anion re-associates with ANT in m-state, restoring IH (4 and 5). Cytosolic ADP cannot inhibit IH while AAC is in m-state (5). Preliminary data from (Bertholet, A. M. Chouchani., E. T.; Kazak, L.; Angelin, A.; Fedorenko, A.; Long, J. Z.; Vidoni, S.; Garrity, R.; Cho, J.; Terada, N.; Wallace, D.C.; Spiegelman, B. M.; and Kirichok, Y. Proton Transport is an Integral Function of the Mitochondrial ADP/ATP Carrier Nature July; 571(7766):515-520 (2019)).
Right panel: IH current densities at −160 mV for WT and ANT1^−/− mitoplasts. b, Representative currents induced by 50 μM DNP in WT and ANT1^−/− mitoplasts of heart. Right panel: IH current densities induced by 50 and 200 μM DNP at −160 mV in WT and ANT1^−/− mitoplasts.
We employed direct patch-clamp recording from vesicles of the whole intact inner mitochondrial membrane (IMM; so-called mitoplasts, FIG. 3), which allow high-resolution functional analysis of mitochondrial ion channels and transporters in their native membrane environment^10,36,37. […]
We recorded DNP-induced IH in heart of ANT1-deficient mice (ANT1 is the dominant isoform of ANT in this tissue).

human sperm = test: Human sperm basal beat frequency; format: cell-based; settings: for sperm beat frequency / motility, result in words: human sperm, 1 μM NEN
Description: as §1, with “A) Human sperm were purified by swim-up method and their basal beat frequency (BF, in Hz) was measured as described in (Mannowetz, N., Naidoo, N. M., Choo, S. A., Smith, J. F. & Lishko, P. V. Slol is the principal potassium channel of human spermatozoa. eLife 2, e01009, doi:10.7554/eLife.01009 (2013)) in control HS solution ((1); in the presence of vehicle control ((2); […]. X's represent the mean of the sample, and dots represent individual data points. B) Human sperm mitochondrial membrane potential (MMP) assessment. Human sperm were incubated for 15 minutes in the presence of 0.1% DMSO (vehicle control), in the presence of 1 μM NEN or 0.75 μM […]. Samples” for “Samples”

human capacitated sperm = test: Hyperactivated motility of capacitated human sperm triggered by progesterone; format: cell-based; settings: capacitated 4 hours; 4 μM progesterone; concentrations as low as 1 μM
Description: A) Human sperm were purified by swim-up method and their basal beat frequency (BF, in Hz) was measured as described in (Mannowetz, N., Naidoo, N. M., Choo, S. A., Smith, J. F. & Lishko, P. V. Slol is the principal potassium channel of human spermatozoa. eLife 2, e01009, doi:10.7554/eLife.01009 (2013)) in control HS solution ((1); in the presence of vehicle control ((2); […]. X's represent the mean of the sample, and dots represent individual data points. B) Human sperm mitochondrial membrane potential (MMP) assessment. Human sperm were incubated for 15 minutes in the presence of 0.1% DMSO (vehicle control), in the presence of 1 μM NEN or 0.75 μM […]. Samples from each condition (at least 100 of sperm midpieces per condition) were then assessed for fluorescence intensity measured with 45 nM MitoRed, which is a cell membrane permeable rhodamine-based dye. MitoRed localizes to mitochondria, and emits red fluorescence. The interaction of Mito Red with mitochondria depends on the membrane potential of the mitochondria. Uncoupled mitochondria emit less fluorescence. Data are standard boxplots, as in (A). C) Effect of sMU on human capacitated sperm hyperactivated motility. Cells were capacitated as described (11) for 4 hours. […] Cells were assessed as either Hyperactivated or Not Hyperactivated. […] Error bars represent 95% CI calculated through the Wilson/Brown method.

| ANT-mediated H+ current (IH), regulators (ANT) | Compound | sperm mitochondrial uncoupling (sMU) as assessed by mitochondrial depolarization (human sperm mitochondria) | sperm beat frequency / motility, result in words (human sperm) | hyperactivation (hyperactivated motility) (human capacitated sperm) | also measured |
| --- | --- | --- | --- | --- | --- |
| – | O=[N+]([O-])c1ccc(O)c([N+](=O)[O-])c1 [DNP, 2,4-dinitrophenol] | uncouple sperm mitochondria | – | – | proton leak (IH) via ANT induced by uncoupler (ANT; whole-IMM patch-clamp, 50 and 200 μM DNP, heart mitoplasts WT and ANT1-/-, -160 mV): strongly and specifically activates proton leak via ANT; also recorded: primarily depends on ANT |
| transient inhibition | Nc1ncnc2c1ncn2[C@@H]1O[C@H](COP(=O)(O)OP(=O)(O)O)[C@@H](O)[C@H]1O [ADP] | – | – | – | – |
| – | NCCO.O=C(Nc1ccc([N+](=O)[O-])cc1Cl)c1cc(Cl)ccc1O [NEN, niclosamide ethanolamine] | uncouples human sperm mitochondria; also recorded: strong sMU | significantly decreases | significantly decreases | – |
| – | C=C1[C@@H]2CC[C@H]3[C@]4(C)C[C@H](O[C@@H]5O[C@H](CO)[C@@H](OS(=O)(=O)O)[C@H](OS(=O)(=O)O)[C@H]5OC(=O)CC(C)C)CC(C(=O)O)(C(=O)O)[C@H]4CC[C@]3(C2)[C@H]1O [CATR, carboxyatractyloside] | – | – | – | inhibition of IH mediated by ANT (ANT; whole-IMM patch-clamp, classical ANT inhibitor): blocked |
| activated | CCCCC/C=C\C/C=C\C/C=C\C/C=C\CCCC(=O)O [arachidonic acid] | – | – | – | – |
| – | O=C(Nc1ccc([N+](=O)[O-])cc1Cl)c1cc(Cl)ccc1O [niclosamide] | uncouple sperm mitochondria | significantly decreases sperm motility | inhibited hyperactivation | sperm mitochondrial uncoupling (sMU) as assessed by mitochondrial depolarization (human sperm mitochondria; listed as Niclosamide): uncouples mitochondria; sperm beat frequency (human sperm; human sperm purified by swim-up, decreased from 14 Hz, concentrations as low as 1 μM): 6 Hz |
